Earlier results on three molecules are cited in patent publication US20240173338A1, “PREPARATION AND ACTIVITY CHARACTERIZATION OF CANNABICITRAN ENANTIOMERS” (University of North Carolina at Wilmington, priority 2022, published 2024).

Targets include CB1 (Homo sapiens, UniProt P21554); CB2 (Homo sapiens, UniProt P34972); GPR55 (Homo sapiens, UniProt Q9Y2T6).
The target in the next data set is T1, 5-HT1A (Homo sapiens, UniProt P08908).
T1 sequence (P08908 1-422): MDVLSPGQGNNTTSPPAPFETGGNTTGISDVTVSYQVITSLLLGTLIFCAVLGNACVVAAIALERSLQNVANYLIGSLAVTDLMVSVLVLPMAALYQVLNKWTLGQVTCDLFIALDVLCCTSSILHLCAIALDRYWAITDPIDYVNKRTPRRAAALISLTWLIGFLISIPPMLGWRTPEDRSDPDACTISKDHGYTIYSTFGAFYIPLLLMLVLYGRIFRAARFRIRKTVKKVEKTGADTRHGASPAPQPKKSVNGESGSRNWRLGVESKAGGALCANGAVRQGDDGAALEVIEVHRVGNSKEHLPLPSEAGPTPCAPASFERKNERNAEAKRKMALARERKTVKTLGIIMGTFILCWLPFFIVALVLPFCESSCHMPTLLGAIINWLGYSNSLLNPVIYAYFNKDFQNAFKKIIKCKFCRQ

The conditions of data set [1]: rabbits.

Sequence of CB2 (P34972 whole entry, species assumed): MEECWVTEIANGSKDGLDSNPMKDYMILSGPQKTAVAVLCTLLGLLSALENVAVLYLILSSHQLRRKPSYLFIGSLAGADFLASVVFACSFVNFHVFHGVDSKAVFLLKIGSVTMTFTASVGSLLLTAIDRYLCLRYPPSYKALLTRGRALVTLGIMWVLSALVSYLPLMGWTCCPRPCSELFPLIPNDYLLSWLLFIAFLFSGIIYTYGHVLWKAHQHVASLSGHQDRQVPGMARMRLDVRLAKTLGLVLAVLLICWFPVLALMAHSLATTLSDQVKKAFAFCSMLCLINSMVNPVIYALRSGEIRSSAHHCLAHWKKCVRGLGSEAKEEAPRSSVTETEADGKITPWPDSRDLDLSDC
Sequence of GPR55 (Q9Y2T6 whole entry, species assumed): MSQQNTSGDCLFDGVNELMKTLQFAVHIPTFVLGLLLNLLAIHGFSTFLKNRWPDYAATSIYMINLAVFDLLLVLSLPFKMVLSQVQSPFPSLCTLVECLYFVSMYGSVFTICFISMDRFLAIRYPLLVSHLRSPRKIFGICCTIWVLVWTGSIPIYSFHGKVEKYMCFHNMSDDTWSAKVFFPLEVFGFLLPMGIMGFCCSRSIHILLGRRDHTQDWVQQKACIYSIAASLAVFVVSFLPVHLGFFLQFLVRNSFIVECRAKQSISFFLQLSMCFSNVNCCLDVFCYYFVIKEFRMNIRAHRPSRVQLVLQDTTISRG
Sequence of CB1 (P21554 whole entry, species assumed): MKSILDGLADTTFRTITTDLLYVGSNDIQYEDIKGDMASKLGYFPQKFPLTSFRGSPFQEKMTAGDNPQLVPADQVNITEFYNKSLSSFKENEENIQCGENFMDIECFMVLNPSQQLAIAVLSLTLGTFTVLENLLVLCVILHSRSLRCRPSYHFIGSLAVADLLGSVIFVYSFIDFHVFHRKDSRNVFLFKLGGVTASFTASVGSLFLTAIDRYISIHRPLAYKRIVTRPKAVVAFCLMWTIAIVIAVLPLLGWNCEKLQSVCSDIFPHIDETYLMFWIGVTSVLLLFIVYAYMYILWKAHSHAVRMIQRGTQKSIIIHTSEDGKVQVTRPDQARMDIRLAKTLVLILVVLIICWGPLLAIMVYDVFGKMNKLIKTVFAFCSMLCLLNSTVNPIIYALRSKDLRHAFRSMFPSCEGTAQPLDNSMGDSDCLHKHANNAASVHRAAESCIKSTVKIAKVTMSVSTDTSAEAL

For the molecule trans-CBD [(+)-2], on CB1, the “binding to CB1” value is given as “bind strongly”. Moreover, at CB2, the “binding to CB2” value is listed as “bind strongly”.

In the case of trans-CBD [(−)-2], the “binding to GPR55” value on GPR55 was “known to bind”. Also, in the data set on multiple TRPs, the “binding to multiple TRPs” value is reported as “known to bind”. Besides, the “binding to 5-HT1A” value at 5-HT1A was “known to bind”.

As to `CCCCCc1cc2c3c(c1)O[C@]1(C)CC[C@@H]([C@H]3C1)C(C)(C)O2` [CBT-C (3), cannabicitran], the “effect on intraocular pressure” value in data set [1] was “reduces intraocular pressure”.
